Assay [1] relates to DU-145 human prostate cancer cells. In words: Antiproliferative assay (WST-1, 96 h), DU-145. Conditions: for GI50: Homo sapiens, DU-145 cells, 96 h, WST-1, mean of three determinations; for antiproliferative activity (in words): in vitro antiproliferative activity, result in words. The class given is cell-based. The procedure: (§1) Cell lines: DU-145 (brain metastasis carcinoma of the prostate) and MDA MB-231 (metastatic pleural effusion of breast adenocarcinoma) established human cell lines were obtained from ATCC Global Bioresource Center. Cells were maintained in a 5 % CO2 humidified atmosphere at 37 °C in RPMI-1640 medium, supplemented with 10 % fetal bovine serum, penicillin, (100 U mL^−1), and streptomycin (0.1 mg mL^−1). The effect of drugs on tubule formation was assessed using an angiogenesis kit (TCS-Cellworks).
(§2) Antiproliferative assays: DU-145 and MDA MB-231 cells were seeded into 96-well microtitre plates (5000 cells per well) and treated with compound (10^−9–10^−4 M) or with vehicle control. At 96 h post-treatment, live cell counts were determined by WST-1 cell proliferation assay (Roche, Penzberg, Germany), as per the manufacturer’s instructions. Viability results were expressed as a percentage of mean control values resulting in the calculation of the 50 % growth inhibition (GI50). All experiments were performed in triplicate.
A general note: Formazan colour is commonly taken as a measure of viable cells.

Assay [2] has as its system MDA MB-231 human breast cancer cells. In words: Antiproliferative assay (WST-1, 96 h), MDA MB-231. It is filed as cell-based. Conditions: MDA MB-231 cells, WST-1, mean of three determinations. Here is the method: as §1, §2

`COc1cc(CN2CCc3cc(OCc4ccccc4)c(OC)cc3C2=O)cc(OC)c1` [7 d, 6-Benzyloxy-7-methoxy-2-(3,5-dimethoxybenzyl)-3,4-dihydroisoquinolin-1(2H)-one] displayed a 50% growth inhibitory concentration (GI50) in assay [1] greater than 100 µM.

Regarding `COc1cc2c(cc1OCc1ccccc1)CCN(Cc1cc(OC)c(OC)c(OC)c1)C2=O` [7 e, 6-Benzyloxy-7-methoxy-2-(3,4,5-trimethoxybenzyl)-3,4-dihydroisoquinolin-1(2H)-one], in assay [1], the 50% growth inhibitory concentration (GI50) is greater than 100 µM.

The compound `COc1cc2c(cc1O)CCN(Cc1ccccc1OC)C2=O` [8 a, 6-Hydroxy-7-methoxy-2-(2-methoxybenzyl)-3,4-dihydroisoquinolin-1(2H)-one] registered a concentration for 50% growth inhibition (GI50) in assay [1] greater than 100 µM.

On to `COc1cc(CN2CCc3cc(O)c(OC)cc3C2=O)cc(OC)c1` [8 d, 6-Hydroxy-7-methoxy-2-(3,5-dimethoxybenzyl)-3,4-dihydroisoquinolin-1(2H)-one], for which, in assay [1], the GI50 is greater than 100 µM.

Take `COc1cc2c(cc1O)CCN(Cc1cc(OC)c(OC)c(OC)c1)C2=O` [8 e, 6-Hydroxy-7-methoxy-2-(3,4,5-trimethoxybenzyl)-3,4-dihydroisoquinolin-1(2H)-one]: in assay [1], the 50% growth inhibitory concentration (GI50) is greater than 100 µM.

In assay [1], `COc1ccccc1CN1CCc2cc(OS(N)(=O)=O)c(OC)cc2C1=O` [9 a, 7-Methoxy-2-(2-methoxybenzyl)-6-sulfamoyloxy-3,4-dihydroisoquinolin-1(2H)-one] yielded a GI50 greater than 100 µM.

As for `COc1ccc(CN2CCc3cc(OS(N)(=O)=O)c(OC)cc3C2=O)cc1` [9 c, 7-Methoxy-2-(4-methoxybenzyl)-6-sulfamoyloxy-3,4-dihydroisoquinolin-1(2H)-one], the GI50 in assay [1] is greater than 100 µM.

The compound `COc1cc(CN2CCc3cc(OS(N)(=O)=O)c(OC)cc3C2=O)cc(OC)c1` [9 d, 7-Methoxy-2-(3,5-dimethoxybenzyl)-6-sulfamoyloxy-3,4-dihydroisoquinolin-1(2H)-one] gave a GI50 in assay [1] greater than 100 µM.

Consider `COc1cc2c(cc1OS(N)(=O)=O)CCN(Cc1cc(OC)c(OC)c(OC)c1)C2=O` [9 e, 7-Methoxy-6-sulfamoyloxy-2-(3,4,5-trimethoxybenzyl)-3,4-dihydroisoquinolin-1(2H)-one], for which, in assay [1], the 50% growth inhibitory concentration (GI50) was greater than 100 µM.

In the case of `COc1cc2c(cc1OCc1ccccc1)CCN(S(=O)(=O)c1ccccc1OC)C2=O` [10 a, 6-Benzyloxy-7-methoxy-2-((2-methoxyphenyl)sulfonyl)-3,4-dihydroisoquinolin-1(2H)-one], the GI50 in assay [1] and in assay [2] was greater than 100 µM throughout.

`COc1cccc(S(=O)(=O)N2CCc3cc(OCc4ccccc4)c(OC)cc3C2=O)c1` [10 b, 6-Benzyloxy-7-methoxy-2-((3-methoxyphenyl)sulfonyl)-3,4-dihydroisoquinolin-1(2H)-one]: the 50% growth inhibitory concentration (GI50) in assay [1] and in assay [2] was greater than 100 µM in each case.

Regarding `COc1cc2c(cc1OCc1ccccc1)CCN(S(=O)(=O)c1cccc(Cl)c1)C2=O` [10 d, 6-Benzyloxy-7-methoxy-2-((3-chlorophenyl)sulfonyl)-3,4-dihydroisoquinolin-1(2H)-one], the concentration for 50% growth inhibition (GI50) in assay [1] and in assay [2] was greater than 100 µM each time.

For the compound `COc1cc2c(cc1O)CCN(S(=O)(=O)c1ccccc1OC)C2=O` [11 a, 6-Hydroxy-7-methoxy-2-((2-methoxyphenyl)sulfonyl)-3,4-dihydroisoquinolin-1(2H)-one], the GI50 in assay [1] is greater than 100 µM; in assay [2] it was 13.4 µM.

Take `COc1cccc(S(=O)(=O)N2CCc3cc(O)c(OC)cc3C2=O)c1` [11 b, 6-Hydroxy-7-methoxy-2-((3-methoxyphenyl)sulfonyl)-3,4-dihydroisoquinolin-1(2H)-one]: the concentration for 50% growth inhibition (GI50) in assay [1] and in assay [2] was greater than 100 µM throughout.

Regarding `COc1ccc(S(=O)(=O)N2CCc3cc(OS(N)(=O)=O)c(OC)cc3C2=O)cc1` [12 c, 7-Methoxy-2-((4-methoxyphenyl)sulfonyl)-6-(sulfamoyloxy)-3,4-dihydroisoquinolin-1(2H)-one], the GI50 in assay [1] and in assay [2] was greater than 100 µM each time.

In assay [1], `COc1ccc(C(=O)N2CCc3cc(OCc4ccccc4)c(OC)cc3C2)cc1OC` [14 e, 6-Benzyloxy-2-(3,4-dimethoxybenzoyl)-7-methoxy-1,2,3,4-tetra-hydroisoquinoline] gave a GI50 of 26.7 µM.

In assay [1], `COc1cc(OC)cc(C(=O)N2CCc3cc(OCc4ccccc4)c(OC)cc3C2)c1` [14 f, 6-Benzyloxy-2-(3,5-dimethoxybenzoyl)-7-methoxy-1,2,3,4-tetra-hydroisoquinoline] gave a GI50 of 46.8 µM.

Consider `COc1cc2c(cc1OCc1ccccc1)CCN(C(=O)c1cc(OC)c(OC)c(OC)c1)C2` [14 g, 6-Benzyloxy-7-methoxy-2-(3,4,5-trimethoxybenzoyl)-1,2,3,4-tetrahydroisoquinoline], for which the GI50 is 62.7 µM in assay [1] and 18.9 µM in assay [2].

Take `COc1cc2c(cc1OCc1ccccc1)CCN(C(=O)c1ccccc1OC)C2=O` [15 a, 6-Benzyloxy-2-(2-methoxybenzoyl)-7-methoxy-3,4-dihydroisoquinolin-1(2H)-one]: the values for the 50% growth inhibitory concentration (GI50) in assay [1] and in assay [2] were greater than 100 µM and 43.6 µM, respectively.

For `COc1cc2c(cc1OCc1ccccc1)CCN(C(=O)c1cccc(C#N)c1)C2=O` [15 c, 6-Benzyloxy-2-(3-cyanobenzoyl)-7-methoxy-3,4-dihydroisoquinolin-1(2H)-one], the GI50 in assay [1] and in assay [2] was greater than 100 µM throughout.

In assay [1], `COc1ccc(C(=O)N2CCc3cc(OCc4ccccc4)c(OC)cc3C2=O)cc1` [15 d, 6-Benzyloxy-2-(4-methoxybenzoyl)-7-methoxy-3,4-dihydroisoquinolin-1(2H)-one] showed a GI50 greater than 100 µM.

In assay [1], `COc1ccc(C(=O)N2CCc3cc(OCc4ccccc4)c(OC)cc3C2=O)cc1OC` [15 e, 6-Benzyloxy-2-(3,4-dimethoxybenzoyl)-7-methoxy-3,4-dihydroisoquinolin-1(2H)-one] gave a GI50 greater than 100 µM.

In turn, `COc1cc(OC)cc(C(=O)N2CCc3cc(OCc4ccccc4)c(OC)cc3C2=O)c1` [15 f, 6-Benzyloxy-2-(3,5-dimethoxybenzoyl)-7-methoxy-3,4-dihydroisoquinolin-1(2H)-one] displayed a GI50 in assay [1] greater than 100 µM.

`COc1ccc(C(=O)N2CCc3cc(O)c(OC)cc3C2=O)cc1` [16 d, 6-Hydroxy-2-(4-methoxybenzoyl)-7-methoxy-3,4-dihydroisoquinolin-1(2H)-one]: in assay [1], the GI50 was greater than 100 µM and the “antiproliferative activity (in words)” value was “inactive”.

As for `COc1cc2c(cc1O)CCN(C(=O)c1ccc(OC)c(OC)c1)C2` [18 a, 2-(3,4-Dimethoxybenzoyl)-6-hydroxy-7-methoxy-1,2,3,4-tetrahydroisoquinoline], in assay [1], the GI50 is greater than 100 µM and the “antiproliferative activity (in words)” value is “completely inactive”.

`COc1cc(OC)cc(C(=O)N2CCc3cc(O)c(OC)cc3C2)c1` [18 b, 2-(3,5-Dimethoxybenzoyl)-6-hydroxy-7-methoxy-1,2,3,4-tetrahydroisoquinoline] had a GI50 in assay [1] of 6.4 µM.

`COc1ccc(C(=O)N2CCc3cc(OS(N)(=O)=O)c(OC)cc3C2)cc1OC` [19 a, 2-(3,4-Dimethoxybenzoyl)-7-methoxy-6-sulfamoyloxy-1,2,3,4-tetrahydroisoquinoline]: in assay [1], the GI50 is greater than 100 µM and the “antiproliferative activity (in words)” value is “completely inactive”.

In turn, `COc1cc(OC)cc(C(=O)N2CCc3cc(OS(N)(=O)=O)c(OC)cc3C2)c1` [19 b, 2-(3,5-Dimethoxybenzoyl)-7-methoxy-6-sulfamoyloxy-1,2,3,4-tetrahydroisoquinoline] showed a GI50 in assay [1] of 9 µM. This lies in the single-digit micromolar range.

Broadly, the GI50 is the concentration that inhibits growth by half.
